We go through one substance from patent US20180369230A1, “TARGETED SELECTION OF PATIENTS FOR TREATMENT WITH SPECIFIC CORTISTATIN DERIVATIVES” (President and Fellows of Harvard College, priority 2015, published 2018).

For test [1], the system named is MOLM-14 cells. Put plainly: Gene expression, gene set enrichment analysis (GSEA). The format is cell-based, human. The settings on record: MOLM-14, 3 h 25 nM. As to the method:
(§1) Leukemia cells were plated (12-well) in triplicate at 500,000-800,000 cells per ml and incubated in the presence of vehicle (0.1% DMSO) or CA (25 nM 3 h for K562, MOLM-14 and MV4;11; 10 nM 24 h for MOLM-14; 25 nM 4 h for SET-2, n=3 for each cell line). Cells were then washed twice with cold PBS, and snap frozen. RNA was isolated (RNeasy Plus Microkit, Qiagen or TRIzol, Life Technologies), processed, and, for K562, MOLM-14 and MV4;11, hybridized to the Human U133 Plus 2.0 microarray (Affymetrix). Microarrays were processed with Bioconductor packages affyQCReport for quality control and affy for background correction, summarization, and normalization using rma. Probe sets present in at least 1 sample (based on affy mas5call) and for which the interquartile range was >log2(1.2) were retained for further analysis. The limma Bioconductor package was used for differential expression analysis of CA-treated versus DMSO control samples (Benjamini-Hochberg adjusted P<0.05). SET-2 and HCT 116 gene expression was measured by RNA-seq. SET-2 RNA-seq libraries were prepared and processed using the Ion Torrent workflow. Reads were aligned in two passes, first with rnaStar (v.2.3.0e) then with BWA (v.0.7.5a) for remaining unmapped reads, both using default parameters. Mapped reads were merged and counted using HTSeq (v.0.5.3p3) with -s yes -m intersection-strict. The Bioconductor package DESeq was used for DE analysis (FDR<0.05 and twofold change) and normalization. HCT116 cells were grown to approximately 80% confluence and were treated with either 100 nM CA or DMSO for 3 h (n=3). Cells were then washed twice with cold PBS and scraped into TRIzol reagent (Life Technologies). After collecting the RNA, it was further purified using an RNeasy mini kit (Qiagen) with an on-column DNase I digestion. Libraries for Illumina sequencing were generated via the Illumina TruSEQ stranded mRNA prep kit. Samples were run in a single lane on an Illumina HiSEQ 2000 sequencer with a single read flow cell using 1×50-bp reads and a 6-cycle index read. Reads were mapped to the hg19 reference genome using Tophat2 v.2.0.6 with custom settings including the setting of -library-type fr- firstrand to appropriately account for the stranded nature of the protocol. HTSeq v.0.6.1 was used to obtain read counts over annotated genes and differentially expressed genes were called by DESeq v.1.10.1 with a padj value of less than 0.01. Counts were normalized for GSEA using the limma voom function. Expression data for the I-BET151 comparison were downloaded from ArrayExpress (https://www.ebi.ac.uk/arrayexpress, accession E-MTAB-774) and processed files used as is. Gene lists were submitted to the DAVID web server (http://david.abcc.ncifcrf.gov) for functional annotation. GSEA version 2.09 was carried out using signal-to-noise on natural values as the metric. Signatures included curated gene sets (C2, v.3) downloaded from the Broad's MSigDB as well as signatures curated from in-house and published data sets.
(§2) The curated gene sets were analyzed together with over 4,000 signatures including the Broad Molecular Signatures database (C2).

For test [2], the system named is SET-2 cells. The test is described as above. The settings on record: SET-2, 4 h 25 nM. The format is cell-based, human. Here is the method: as §1, §2
The subject of test [3] is RL95-2. Put plainly: Soft agar growth assay. The class given is cell-based. To be noted: RL95-2, Endometrial cancer, ER-alpha positive, 100 nM. As to the method:
For the 62 cell lines 96 well suspension cell culture plates were prepared. 100 μL of the soft agar bottom layer (0.6% final concentration in complete medium) was poured and left to solidify. 50 μL of the soft agar top layer (0.4% final concentration) containing the corresponding cells and cell number were then added on top, solidified and incubated at 37° C., 10% CO2. After the soft agar had solidified, the test items were added at indicated final concentrations into the inner wells of the plate. Subsequently, the assay was incubated in cell culture incubators for 8 to 14 days. Finally, the assay was developed using Alamar Blue and upon 1-5 h of incubation at 37° C. fluorescence intensity was determined (excitation: 560 nm; emission: 590 nm). As low control, cells were treated with 1E-05M Staurosporine (6fold values). As high control, cells were treated with 0.1% DMSO (solvent control, 6 fold values).
Raw data were converted into percent soft agar growth relative to high controls (solvent 0.1% DMSO) and low controls (1E-05M Staurosporine), which were set to 100% and 0%, respectively. The results are tabulated in FIGS. 15A, 15B, and 15C and Table 4 below.

Test [4] deals with MOLM-14 cells. In words: Screening drug resistant alleles. The class given is cell-based. The settings on record: WT and mutated CDK8 and CDK19. As to the method:
All suspension cells were plated (96-well) in triplicate at 5,000-30,000 cells per well for testing (n=3). Viable cell number was estimated after 3, 7 and 10 days by counting viable cells from one vehicle well, generating a cell dilution series, transferring […] per well in duplicate to a 384-well plate, and performing a linear regression to CellTiter-Glo (Promega) response (SPECTRAmax M3, Molecular Devices). Cells from all wells were also fourfold diluted in media and transferred in duplicate for CellTiter-Glo measurement. On days 3 and 7, an equal volume for all wells was split-back with fresh media and compound, such that the resulting cell density for the vehicle well matched the initial seeding density. For days 7 and 10, estimated cell number represents the split-adjusted theoretical cell number. HCT116 were plated (96-well) in triplicate at 250 cells per well. Cells were incubated in the presence of vehicle, 1 μM paclitaxel, or compound. On day 7, CellTiter-Blue (Promega) response was measured and values were normalized to vehicle (100% growth) and paclitaxel (0% growth). For growth assays with inhibitors, n=3 for each concentration with two independent experiments. […]

As to Cortistatin A, the NES in test [1] (signature: Downregulated by RUNX1-RUNX1T1 in CD34+ cord blook cells) amounted to 2.50; in test [1] (signature: Downregulated by RUNX1 knowckdown in Jurkat cells), 2.00; in test [1] (signature: Downregulated by RUNX1 knowckdown in Kasumi-1 cells), 2.21; in test [1] (signature: Upregulated by C/EBPα in Burkitt lymphoma cells), 2.56; in test [1] (signature: Upregulated by C/EBPα in K562 cells), 2.22; in test [1] (signature: Upregulated by C/EBPα in KCL22 cells) it was 2.22. The NES in test [1] (signature: Upregulated by RUNX1-RUNX1T1 knockdown in Kasumi-1 cells) was found to be 2.78; in test [2] (signature: GATA1/GATA2/RUNX1/FLI1/SCL Binding Sites in Mks), 2.03; in test [2] (signature: GATA1/SCL Binding sites in Mks), 2.27. Also, the “% growth rel. to vehicle” value in test [3] was determined as 16%. In addition, the “growth of cells expressing CDK8 W105M or CDK19 W105M” value in test [4] is “confers Cortistatin A resistance”.
